According to patent publication US4423076A, “1-Branched-alkyl-3-(2-haloethyl)-3-nitrosoureas as novel antitumor agents” (National Foundation for Cancer Research, Inc., priority 1979, dated 1983):

Legend:
Solubility = assay type: physicochemical; settings: prevented its clinical evaluation
[1] = Chemical stability of isocyanates; assay type: physicochemical; settings: for half-life: physiological pH and temperature; for stability (hydrolysis): water-acetone (1:3), 57° C., three-day period, pH 6.0
Method: Both have half-lives of greater than 30 minutes at physiological pH and temperature.

[2] = tested on: Yancey's lymphocytic leukemia (YLL); assay: NCNU against Yancey's lymphocytic leukemia, treatment begun day 2 or 7, several schedules; assay type: in vivo, mouse
Method: (§1) The effect of NCNU was tested against Yancey's lymphocytic leukemia (YLL) which had been implanted subcutaneously (sc) two days before injection of the drug. The single injection of 0.1 ml of a solution of one spleen of a YLL bearing mouse homogenized in 10 ml Locke's Solution was given either intraperitoneally or subcutaneously.
The study of Experiment III was conducted with NCNU treatment beginning at 2 or 7 days after implantation of YLL tumors. NCNU injection was ip or sc on a schedule of one time per week for 4 weeks, twice per week for 4 weeks, or a single dose.
Effects of NCNU Against Yancey's
(§2) experiments are continuing.

various forms of cancer = assay: Human studies, patients having advanced stages of various forms of cancer; assay type: in vivo; settings: two 25 mg/kg sc doses or iv, total 50 mg/kg daily
Method: Patients having advanced stages of various forms of cancer are treated by subcutaneous injection of two 25 mg/kg doses of NCNU in water or by intravenous administration of 1 milligram NCNU/ml 0.9% saline to provide a total daily dose of 50 mg/kg; a full clinical examination is carried out prior to and after administration. Tumor growth is measured where possible by palpition, X-rays and photography.

[3] = Toxicity of single-dose NCNU ip in normal mice (deaths); design: species or system CDFl mice; settings: in vivo; for mortality at 192 h: at day 8; for mortality at 24 h: at day 1; for mortality at 216 h: at day 9
Method: Toxicity studies were conducted by injecting a single dose of NCNU ip.
Toxicity of NCNU in CDFl Normal Mice

[4] = tested on: murine leukemia L1210 tumor cells; assay: Single-dose treatment against two-day murine leukemia L1210 (increase in median lifespan); assay type: in vivo, CDF1 mice
Method: (§3) A single dose of 1-neopentyl-3-(2-chloroethyl)-3-nitrosourea (NCNU) was injected intraperitoneally (ip) in CDF1 mice which had been implanted ip two days earlier with approximately 10×10^5 murine leukemia L1210 tumor cells. The NCNU was dissolved in emulphor EL-620 (polyoxyethylated; GAF Corporation, New York, N.Y.) and raised to the desired volume with 0.85% sodium chloride.
(§4) Effects of Single-Dose Treatment with NCNU Against
Two-Day Murine Leukemia L1210
as §2

[5] = tested on: murine leukemia P388 tumor cells; assay: Single-dose treatment against two-day murine leukemia P388 (increase in median lifespan); assay type: in vivo, CDF1 mice
Method: as §3
The study of Experiment I was conducted using approximately 5×10^5 murine leukemia P388 tumor cells (0.1 ml of a 1:100 dilution).
as §4
Two-Day Murine Leukemia P388
as §2

[6] = tested on: Yancey's lymphocytic leukemia (YLL); assay: Single-dose treatment against two-day Yancey's lymphocytic leukemia (increase in median life span); assay type: in vivo, mouse
Method: as §1, §4
Two-Day Yancey's Lymphocytic Leukemia
as §2

Structure (SMILES): CC(C)(C)CNC(=O)N(CC(C)(C)C)N=O
- solubility (Solubility): limited solubility

Structure (SMILES): CC(C)(C)CCN=C=O [neohexyl isocyanate]
- half-life [1]: > 30 min
- stability (hydrolysis) [1]: remarkably stable

Structure (SMILES): CC(C)(C)CN=C=O [neopentyl isocyanate]
- half-life [1]: > 30 min
- stability (hydrolysis) [1]: remarkably stable

Structure (SMILES): CC(C)(C)CNC(=O)N(CCCl)N=O [NCNU, 1-neopentyl-3-(2-chloroethyl)-3-nitrosourea]
- % ILS ([2]; 0.5 mg/mouse ip, 1x/wk for 4 wks, begun day 2): 28.6%
- % ILS ([2]; 0.5 mg/mouse ip, once, begun day 7): 6.7%
- % ILS ([2]; 0.5 mg/mouse sc, 1x/wk for 4 wks, begun day 2, + = animals not yet all died): ≥ 114.3%
- % ILS ([2]; 0.5 mg/mouse sc, once, begun day 7): 6.7%
- % ILS ([2]; 1.0 mg/mouse ip, 1x/wk for 4 wks, begun day 2): 178.6%
- % ILS ([2]; 1.0 mg/mouse ip, once, begun day 7): 66.6%
- % ILS ([2]; 1.0 mg/mouse sc, 1x/wk for 4 wks, begun day 2, + = animals not yet all died): ≥ 207.1%
- % ILS ([2]; 1.0 mg/mouse sc, once, begun day 7): 66.6%
- % ILS ([2]; 2.0 mg/mouse ip, 1x/wk for 4 wks, begun day 2): 14.3%
- % ILS ([2]; 2.0 mg/mouse sc, 1x/wk for 4 wks, begun day 2, + = animals not yet all died): ≥ 264%
- % ILS ([2]; 25 mg/kg ip, 1x/wk for 4 wks, begun day 2, + = animals not yet all died): ≥ 100%
- % ILS ([2]; 25 mg/kg ip, 2x/wk for 4 wks, begun day 2, + = animals not yet all died): ≥ 100%
- % ILS ([2]; 25 mg/kg sc, 1x/wk for 4 wks, begun day 2, + = animals not yet all died): ≥ 100%
- % ILS ([2]; 25 mg/kg sc, 2x/wk for 4 wks, begun day 2, + = animals not yet all died): ≥ 100%
- % ILS ([2]; 50 mg/kg ip, 1x/wk for 4 wks, begun day 2, + = animals not yet all died): ≥ 100%
- % ILS ([2]; 50 mg/kg ip, 2x/wk for 4 wks, begun day 2, + = animals not yet all died): ≥ 100%
- % ILS ([2]; 50 mg/kg sc, 1x/wk for 4 wks, begun day 2, + = animals not yet all died): ≥ 100%
- % ILS ([2]; 50 mg/kg sc, 2x/wk for 4 wks, begun day 2, + = animals not yet all died): ≥ 100%
- % ILS ([2]; 75 mg/kg ip, 1x/wk for 4 wks, begun day 2, + = animals not yet all died): ≥ 100%
- % ILS ([2]; 75 mg/kg ip, 2x/wk for 4 wks, begun day 2): 66.6%
- % ILS ([2]; 75 mg/kg sc, 1x/wk for 4 wks, begun day 2, + = animals not yet all died): ≥ 100%
- % ILS ([2]; 75 mg/kg sc, 2x/wk for 4 wks, begun day 2): 0%
- inflammation (various forms of cancer): Inflammation gradually subsides
- tumor size (various forms of cancer): tumor size frequently decreases
- clinical improvement (various forms of cancer; within several days): marked clinical improvement within several days
- mortality ([3]; 1.0 mg/mouse ip): 0%
- mortality at 312 h ([3]; 2.0 mg/mouse ip, at day 13, others survived): 60%
- mortality at 240 h ([3]; 4.0 mg/mouse ip, at day 10): 100%
- mortality at 192 h ([3]; 8.0 mg/mouse ip): 100%
- mortality at 96 h ([3]; 16.0 mg/mouse ip, at day 4): 100%
- mortality at 24 h ([3]; 20.0 mg/mouse ip): 100%
- mortality at 24 h ([3]; 32.0 mg/mouse ip): 100%
- mortality at 312 h ([3]; mouse, 100 mg/kg ip, at day 13): 100%
- mortality at 264 h ([3]; mouse, 150 mg/kg ip, at day 11): 100%
- mortality at 216 h ([3]; mouse, 200 mg/kg ip): 100%
- mortality at 216 h ([3]; mouse, 225 mg/kg ip): 100%
- mortality at 192 h ([3]; mouse, 250 mg/kg ip): 100%
- mortality at 120 h ([3]; mouse, 500 mg/kg ip, at day 5): 100%
- mortality at 48 h ([3]; mouse, 750 mg/kg ip, at day 2): 100%
- mortality at 24 h ([3]; mouse, 1000 mg/kg ip): 100%
- % ILS (increase in median lifespan) ([4]; 25 mg/kg ip): 37.5%
- % ILS (increase in median lifespan) ([4]; 50 mg/kg ip): 100%
- % ILS (increase in median lifespan) ([4]; 75 mg/kg ip, + = animals not yet all died): ≥ 275%
- % ILS (increase in median lifespan) ([4]; 100 mg/kg ip, + = animals not yet all died): ≥ 275%
- % ILS ([5]; 0.5 mg/mouse): 41.5%
- % ILS ([5]; 1.0 mg/mouse): 91.7%
- % ILS ([5]; 2.0 mg/mouse, + = animals not yet all died): ≥ 483%
- % ILS ([6]; 0.5 mg/mouse ip, single dose (first entry)): 14.3%
- % ILS ([6]; 0.5 mg/mouse ip, single dose (second entry)): 6.7%
- % ILS ([6]; 0.5 mg/mouse sc, single dose (first entry)): 35.7%
- % ILS ([6]; 0.5 mg/mouse sc, single dose (second entry)): 13.3%
- % ILS ([6]; 1.0 mg/mouse ip, single dose (first entry)): 64.3%
- % ILS ([6]; 1.0 mg/mouse ip, single dose (second entry)): 33.3%
- % ILS ([6]; 1.0 mg/mouse sc, single dose (first entry)): 64.3%
- % ILS ([6]; 1.0 mg/mouse sc, single dose (second entry)): 20.0%
- % ILS ([6]; 2.0 mg/mouse ip, single dose, + = animals not yet all died): ≥ 264%
- % ILS ([6]; 2.0 mg/mouse sc, single dose): 78.0%
- % ILS ([6]; 25 mg/kg ip, single dose): 13.3%
- % ILS ([6]; 25 mg/kg sc, single dose): 6.6%
- % ILS ([6]; 50 mg/kg ip, single dose): 60.0%
- % ILS ([6]; 50 mg/kg sc, single dose): 60.0%
- % ILS ([6]; 75 mg/kg ip, single dose): 66.6%
- % ILS ([6]; 75 mg/kg sc, single dose): 73.3%
